Experimental findings from patent US10947284B2, “Fusion molecules” (Pieris Pharmaceuticals GMBH, priority 2015, dated 2021) are described below.

SMILES strings stand for the structures.

One experiment concerns P. aeruginosa PA01. In words: Chronic lung infection model in rats. The experiment is classed as in vivo, Sprague Dawley rats. The note with it: 20 mg/kg/dose, IV BD, treatment from day 3 post infection.
In experiment [1] the target is hNGAL (human lipocalin 2), wild type, SEQ ID NO: 1 (Homo sapiens, UniProt P80188). In words: Surface plasmon resonance (Biacore T200). It counts as binding. The note with it: positive control. From the text:
In a surface plasmon resonance (SPR) based assay, a Biacore T200 instrument (GE Healthcare) was used to measure the binding affinity of individual muteins or fusion molecules to pyoverdine siderophores (to pyoverdine I succinyl, -succinamide, -α-ketoglutaryl with complexed iron ion or to pyoverdine II succinyl, -succinamide, -α-ketoglutaryl with complexed iron ion or to pyoverdine III succinyl, -succinamide, -α-ketoglutaryl with complexed iron ion). To this end, muteins selected for binding to pyoverdines (SEQ ID NOs: 16, 36, 53), a fusion molecule (SEQ ID NO: 134) and a negative control (SEQ ID NO: 64) were biotinylated for 2 h at room temperature applying an appropriate excess of EZ-Link NHS-PEG4-Biotin (Thermo, Cat #21329) followed by separation of non-reacted biotin using a Zebra Spin Desalting Plate (Thermo, […]) according to the manufacturer's instructions.
In the SPR affinity assay, biotinylated muteins and negative control were captured on a sensor chip CAP using the Biotin CAPture Kit (GE Healthcare), wherein the Sensor Chip CAP is pre-immobilized with an ssDNA oligo. […] After ligand immobilization, the four concentrations of Pvd were applied consecutively in ascending order before the dissociation was monitored. […] Data were evaluated with Biacore T200 Evaluation software (V 1.0). […]
(In general: Surface plasmon resonance follows binding to a sensor surface in real time, without labels.)

The target in experiment [2] is T1, hNGAL (human lipocalin 2, parent wild type SEQ ID NO: 1) mutein SEQ ID NO: 62 (Homo sapiens, UniProt P80188, A60Q/C107S/D65G/D97L/I61W/K145F/K154F/K66R/K93I/L123G/L56H/L90D/N85D/Q69R/R101T/R92A/S147I/S88D/W99R/Y120H/Y126G/Y152A/Y72W).
T1 construct: made in house
T1 sequence (P80188 21-198 with the stated changes): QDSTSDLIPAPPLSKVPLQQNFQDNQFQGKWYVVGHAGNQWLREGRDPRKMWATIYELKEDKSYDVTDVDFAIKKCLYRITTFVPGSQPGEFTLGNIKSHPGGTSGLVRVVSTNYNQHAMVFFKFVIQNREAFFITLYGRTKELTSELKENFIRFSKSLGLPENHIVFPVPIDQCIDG
In words: Surface plasmon resonance (Biacore T200), CM5 chip. The experiment is classed as binding. The following applies: SPR, high concentrations (≥1 μM).
Protocol: (§1) Subsequently, 5 μg/mL of mutein or the negative control solution in 10 mM acetate pH 4.0 was applied at a flow rate of 10 μl/min until a high immobilization level of approximately 2000 RU was achieved. Residual activated groups were quenched with ethanolamine. The reference channels were treated with EDC/NHS following ethanolamine (blank immobilization).
The binding assay was carried out with a contact time of 180 s, dissociation times of 1200-1800 s and applying a flow rate of 30 μl/min. Measurements were performed at 25° C. Regeneration of the immobilized mutein surface was achieved by three consecutive injections of 10 mM Gly-HCl pH 1.5 (120 s) followed by an extra wash with running buffer and a stabilization period. Data were evaluated with Biacore T200 Evaluation software (V 1.0). Double referencing was used. The 1:1 Binding model was used to fit the raw data.
Subsequently, 5 μg/mL of mutein or the negative control solution in 10 mM acetate pH 4.0 was applied at a flow rate of 10 μl/min until a high immobilization level of approximately 2000 RU was achieved. Residual activated groups were quenched with ethanolamine. The reference channels were treated with EDC/NHS following ethanolamine (blank immobilization). […] The binding assay was carried out with a contact time of 180 s, dissociation times of 1500-1800 s and applying a flow rate of 30 μl/min. Measurements were performed at 25° C. Regeneration of the immobilized mutein surface was achieved by three consecutive injections of 10 mM Gly-HCl pH 1.5 (120 s) followed by an extra wash with running buffer and a stabilization period. Data were evaluated with Biacore T200 Evaluation software (V 1.0). Double referencing was used. The 1:1 Binding model was used to fit the raw data.

Experiment [3] has as its target lipocalin negative control SEQ ID NO: 64 (Homo sapiens, UniProt P80188, C107S/Q48H). The experiment can be described thus: Surface plasmon resonance (Biacore T200). It counts as binding. The note with it: Biacore, Example 18.
Protocol: In a Surface Plasmon Resonance (SPR) based assay a Biacore T200 instrument (GE Healthcare) was used to measure the binding affinity of muteins to pyoverdine I succinyl, -succinamide, -α-ketoglutaryl with complexed iron ion or to pyoverdine II succinyl, -succinamide, -α-ketoglutaryl with complexed iron ion or to pyoverdine III succinyl, -succinamide, -α-ketoglutaryl with complexed iron ion. Muteins selected for binding to pyoverdines and negative control (SEQ ID NO: 64) were biotinylated for 2 h at room temperature applying an appropriate excess of EZ-Link NHS-PEG4-Biotin (Thermo, Cat #21329) followed by separation of non-reacted Biotin using a Zebra Spin Desalting Plate (Thermo, Cat #21329) according to the manufactures instructions.
In the SPR affinity assay, biotinylated muteins and negative control were captured on a sensor chip CAP using the Biotin CAPture Kit (GE Healthcare): Sensor Chip CAP is pre-immobilized with an ssDNA oligo. Undiluted Biotin CAPture Reagent (streptavidin conjugated with the complementary ss-DNA oligo) was applied at a flow rate of 2 μl/min for 300 s. Subsequently, 1 μg/ml to 100 μg/mL of biotinylated muteins or negative control were applied for 300 s at a flow rate of 5 μl/min. The reference channel was loaded with Biotin CAPture Reagent only.
Applying a flow rate of 30 μl/min, a single cycle or multi cycle kinetics approach was used with a sample contact time of 120-180 s and a dissociation time of 900-2400 s. […] After ligand immobilization, for analysis using single cycle kinetics all 4-5 concentrations of Pvd were applied consecutively in ascending order before the dissociation was monitored. For analysis using multi cycle kinetics 4 dilutions of Pvd were applied, each followed a dissociation phase. All measurements were performed at 25° C. […] Data were evaluated with Biacore T200 Evaluation software (V 1.0). Double referencing was used. A 1:1 Binding model was used to fit the raw data.
as §1
In the SPR affinity assay, biotinylated muteins and negative control were captured on a sensor chip CAP using the Biotin CAPture Kit (GE Healthcare), wherein the Sensor Chip CAP is pre-immobilized with an ssDNA oligo. Undiluted Biotin CAPture Reagent (streptavidin conjugated with the complementary ss-DNA oligo) was applied at a flow rate of 2 μl/min for 300 s. Subsequently, 20 μg/ml to 100 μg/mL of biotinylated muteins or fusion molecule negative control were applied for 300 s at a flow rate of 5 μl/min. The reference channel was loaded with Biotin CAPture Reagent only. To determine the binding affinity, four dilutions of the respective Pvd were prepared in HBS-EP+ buffer (GE Healthcare) and applied to the chip surface. Applying a flow rate of 30 μl/min, a single cycle kinetics approach was used with a sample contact time of 180 s and a dissociation time of 1800-2400 s. […] After ligand immobilization, the four concentrations of Pvd were applied consecutively in ascending order before the dissociation was monitored. All measurements were performed at 25° C. […] Data were evaluated with Biacore T200 Evaluation software (V 1.0). Double referencing was preformed. A 1:1 binding model was used to fit the raw data.
The target in experiment [4] is T2, Fusion molecule SEQ ID NO: 134 (hNGAL muteins SEQ ID NOs: 36, 16, 53 and 62) (Homo sapiens, UniProt P80188, A60T/C107S/D97H, form not given/K145I/K154W/K93R/L123T/L56V/L90R/N85D/Q69G/R101D/R92I/S147R/S88D/T74A/W99Y/Y126Q/Y152I/Y72N).
T2 construct: made in house; host or cells: HEK293
T2 sequence (P80188 with tags, fused parts or gaps with the stated changes, form open): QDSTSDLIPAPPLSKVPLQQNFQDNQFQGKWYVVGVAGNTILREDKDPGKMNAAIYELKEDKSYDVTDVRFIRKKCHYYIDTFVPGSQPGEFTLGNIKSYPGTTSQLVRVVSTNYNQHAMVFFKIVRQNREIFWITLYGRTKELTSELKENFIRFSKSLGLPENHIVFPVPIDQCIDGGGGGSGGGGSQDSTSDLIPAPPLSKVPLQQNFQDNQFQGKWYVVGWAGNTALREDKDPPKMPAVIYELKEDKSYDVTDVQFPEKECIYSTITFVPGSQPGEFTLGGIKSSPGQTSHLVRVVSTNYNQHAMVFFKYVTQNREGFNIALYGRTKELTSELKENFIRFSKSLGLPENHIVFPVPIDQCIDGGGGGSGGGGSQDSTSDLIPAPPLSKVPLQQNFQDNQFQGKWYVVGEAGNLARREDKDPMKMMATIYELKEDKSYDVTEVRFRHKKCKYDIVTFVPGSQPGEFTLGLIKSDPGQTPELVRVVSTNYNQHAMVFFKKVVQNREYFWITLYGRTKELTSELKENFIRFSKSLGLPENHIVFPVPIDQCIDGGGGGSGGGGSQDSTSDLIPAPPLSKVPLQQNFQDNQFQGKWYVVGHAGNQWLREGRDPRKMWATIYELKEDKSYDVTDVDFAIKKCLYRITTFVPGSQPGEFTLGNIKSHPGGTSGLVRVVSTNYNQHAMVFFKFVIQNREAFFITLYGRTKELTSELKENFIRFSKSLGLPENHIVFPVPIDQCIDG
In words: Surface plasmon resonance (Biacore T200). It counts as binding.

lipocalin negative control SEQ ID NO: 64, sequence (P80188 21-198 Q48H/C107S): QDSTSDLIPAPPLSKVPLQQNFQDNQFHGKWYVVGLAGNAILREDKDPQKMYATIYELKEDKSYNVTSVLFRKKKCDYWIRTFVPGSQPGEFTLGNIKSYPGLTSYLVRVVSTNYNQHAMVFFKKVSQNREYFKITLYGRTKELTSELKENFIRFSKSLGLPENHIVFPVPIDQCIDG
hNGAL (human lipocalin 2), wild type, SEQ ID NO: 1, sequence (P80188 21-198): as the sequence (P80188 21-198 Q48H/C107S) above, with H28Q, S87C counted along it
Protocol for P. aeruginosa PA01: P. aeruginosa, PA01, was recovered from long-term storage at −80° C. by sub-culturing onto fresh blood agar plates and incubating at 37° C. overnight. The inoculum was prepared by picking 5-10 distinct colonies from the culture plates followed by suspension in 10 mL of Muller-Hinton broth. The culture was incubated for 18 hours on an orbital shaker at 300 rpm and 37° C. The culture was washed twice in PBS, then the pellet was resuspended in PBS and adjusted to an optical density of 0.669 at 600 nm (approximately 1.2×10^9 CFU/mL). This was further diluted to give an inoculum concentration of 6×10^7 CFU/mL. 1 mL of this inoculum was added to 30 mL of bacteriological agar, used to prepare the agarose beads (Cash H. A. et al., 1979). The final concentration of PA01 in the agarose beads was 2×10^6 CFU/mL (1×10^5 CFU per 50 μL inoculum).
Sprague Dawley rats used in this study were supplied by Charles River Laboratories UK. Rats were 200-225 g at the time of delivery and were specific pathogen free. Following arrival, rats were allowed at least 7 days acclimatization before the study was started. Rats were 250-300 g at the start of the study. Rats were group housed in sterile individually ventilated cages exposing the animals at all times to HEPA filtered sterile air. Rats had free access to food and water (sterile) and had sterile aspen chip bedding (changed every 3-4 days or as appropriate). […]

Regarding `NC[C@H]1O[C@H](O[C@H]2[C@H](O)[C@@H](O[C@H]3O[C@H](CO)[C@@H](O)[C@H](N)[C@H]3O)[C@H](N)C[C@@H]2N)[C@H](N)C[C@@H]1O` [Tobramycin], the “clearance of lung infection” value in the experiment with P. aeruginosa PA01 is “cleared the infection starting from day 5 post-infection”.

As to `O=C(N[C@H]1COC(=O)[C@@H](NC(=O)c2cccc(O)c2O)COC(=O)[C@@H](NC(=O)c2cccc(O)c2O)COC1=O)c1cccc(O)c1O.[Fe+3]` [Fe-Enterobactin, Fe-enterobactin], the binding entry is on record as “showed binding” in experiment [1]; “absence of binding” in experiment [2]; “showed binding” in experiment [3]; “absence of binding” in experiment [4] (SPR, high concentrations (≥1 μM)). Also, in experiment [4] (Biacore, 25° C., Table 13), the KD entry is recorded as “no bdg”.
